Experimental findings from patent publication US9746463B2 (THE TRUSTEES OF COLUMBIA UNIVERSITY IN THE CITY OF NEW YORK, priority 2006, dated 2017) are described below.

Ends that are not written are not given here.

Experiment [1] in a line: Osteocalcin subcutaneous infusion in GTG-induced obesity. The format is in vivo, mouse. The method, then:
FIG. 14. […] Wt mice were injected with gold thioglucose (GTG) or vehicle to induce hyperphagia and obesity. Two weeks later they were implanted with subcutaneous osmotic pumps infusing […] of recombinant osteocalcin or PBS for 28 days before. Body weight gain was recorded thereafter at indicated days.
The effect of uncarboxylated osteocalcin on GTG-induced obesity was investigated (FIG. 14). Wild type mice were injected with gold thioglucose (GTG) to induce hyperphagia and obesity or vehicle. Two weeks later they were implanted with subcutaneous osmotic pumps infusing 1 ng/hr of recombinant uncarboxylated osteocalcin or PBS for 28 days. […] At 28 days, body weight was reduced by about 15% with uncarboxylated osteocalcin treatment.

Experiment [2] relates to Adiponectin expression in WT adipocytes. The experiment can be described thus: Adiponectin expression in adipocytes treated with osteocalcin (real time PCR). As to conditions: wild type adipocytes treated for 4 hours, real time PCR, vs vehicle. The format is cell-based, mouse. The method, then:
FIG. 7A-O. Esp−/− Mice Are a Model of Increased Osteocalcin Bioactivity. (FIGS. 7A-G) Comparison between 6-week-old WT, Esp−/, Ocn+/−, and Esp−/−; Ocn+/− mice. (FIG. 7A) Blood glucose levels. (FIG. 7B) Serum insulin levels. (FIG. 7C) Serum adiponectin levels. (FIG. 7D) GTT. (FIG. 7E) ITT. (FIG. 7F) GSIS test. (FIG. 7G) Quantification of the number of Ki67-immunoreactive cells in pancreatic islets. […] (FIG. 7K) Expression of Adiponectin in WT adipocytes cultured in presence of vehicle or of 1 ng/ml of commercially available carboxylated osteocalcin (Immunotopics) or bacterially produced uncarboxylated osteocalcin. (FIG. 7L) Expression of Insulin and Cyclin D1 in WT islets cultured in presence of 0.3 ng/ml of bacterially produced uncarboxylated osteocalcin or vehicle. (FIG. 7M) Metabolic parameters and total serum osteocalcin levels in control and obese patients. (FIG. 7N-O) Quantification of carboxylated osteocalcin (HA-bound osteocalcin) in control and obese patients. In (FIGS. 7A)-(C) and (FIGS. G)-(L): *p<0.05 versus WT (Student's t test); in (FIG. D)-(F), °p<0.05 versus WT and *p % 0.001 versus WT (ANOVA followed by post hoc analysis).
FIG. 15. […] Wt adipocytes were treated for 4 hours with recombinant full-length osteocalcin (1-46) or a truncated form (1-36) or vehicle. Adiponectin expression was then quantified by real time PCR.
Primary adipocytes were isolated from epididymal fat pads by collagenase digestion. Briefly, minced adipose tissue was digested by 1 mg/ml collagenase P in KRP Buffer (20 mM HEPES, 120 mM NaCl, 6 mM KCl, 1.2 mM MgSO4, 1 mM CaCl2, 0.6 mM Na2HPO4, 0.4 mM NaH2PO4, 2.5 mM D-glucose, 2% BSA, pH 7.4) for 1 h at 37° C. The isolated cells were washed twice with KRP Buffer before being cultured in αMEM/1% FBS at 37° C. in 5% CO2.
Gene expression analyses. All gene expression analyses were performed using real time PCR. DNAse I-treated total RNA was converted to cDNA with the SuperScript III kit (Invitrogen). Real-time PCR were performed using the Taq SYBR Green Supermix with ROX (Biorad) on an MX3000 instrument (Stratagene); beta-actin amplification was used as an internal reference for each sample. All primers were from SuperArray.
A fragment of uncarboxylated osteocalcin is biologically active. Experiments were performed to test whether truncated osteocalcin was as effective as full-length uncarboxylated osteocalcin in stimulating adiponectin secretion from mouse adipocytes in vitro. Wild type adipocytes were treated for 4 hours with recombinant full-length osteocalcin (1-46) or a truncated form (1-36) (having a deletion of the first ten amino acids from the C-terminal end) or vehicle. Adiponectin expression was then quantified by real time PCR. […]

As to “uncarboxylated osteocalcin: Recombinant mouse osteocalcin bacterially produced as GST fusion, cleaved with thrombin; completely undercarboxylated at all three sites (YLGASVPSPDPLEPTREQCELNPACDELSDQYGLKTAYKRIYGITI; not fully specified; ends and bridges not checked; UniProt P86546 50-95, looked up)”, in experiment [1] (GTG-injected wild type mice, 1 ng/hr by osmotic pump for 28 days, from 7 days on, vs PBS), the body weight gain entry is “significantly reduced”. Besides, in experiment [1] (GTG-injected wild type mice, 1 ng/hr, at 28 days), the “reduction of body weight” value was “about 15%”. The GTG-induced obesity entry in experiment [1] (wt mice, infusion for 28 days (figure legend)) is given as “prevents GTG-induced obesity”. Also, the “increase of Adiponectin expression” value in experiment [2] is listed as about 1.5 fold.
